For data set [1], the system named is P-glycoprotein. As to the kind of experiment: Reversal of multidrug resistance: rhodamine 123 accumulation in human mdr1 transfected L5178 mouse T-cell lymphoma cells (flow cytometry). The conditions noted are these: for Vrel = effect related to Verapamil: Verapamil at 10 μg/ml; for R = ratio of fluorescence and activity / R (activity ratio, fluorescence): rhodamine 123; for Multidrug resistance reversing effect (in words): 4 and 40 μg/mL, at higher concentration multiple of fluorescence activity of Verapamil. Format: cell-based. How it is done:
L5178 mouse T-cell lymphoma cells were transfected with pHa MDR1/A retrovirus, by the method as described by J. L. Weaver [J. L. Weaver, G. Szabó, P. S. Pine, M. M. Gottesmann, S. Goldenberg and A. Aszalos: The effect of ion channel blockers, immunosuppressive agents and other drugs on the activity of the multidrug transporter. Int. […] Mdr-1-expressing cell lines were selected by culturing the transfected cells with 60 ng/mL of colchicine to maintain the expression of the MDR phenotype. L5178 (parent) mouse T-cell lymphoma cells and the human mdr1 transfected subline were cultured in McCoy's 5A medium supplemented with 10% by mass of heath-inactivated horce serum, L-glutamine and antibiotics. Both cell lines were cultured at 37° C. The mouse lymphoma cell line was maintained in a 5% CO2 atmosphere.
The assays were carried out by the method as described by J. Molnár et al. [J. Molnár, I. Mucsi, J. Nacsa, A. Hevér, N. Gyémánt, K. Ugocsai, P. Hegyes, S. Kiessig, D. Gaal, H. Lage and A. Varga: New silicon compounds as resistance modifiers against multidrug-resistant cells. […] The cell density was set to a value of 2×10^6/mL, then the cells were resuspended in a serum-free McCoy's 5A medium and divided in aliquots of 0.5 mL in Eppendorf centrifuge tubes. The tested compounds were added in different concentrations to different volumes (2.0-20.0 μL) of 1.0-10.0 mg/mL stock solutions and the samples were incubated for 10 minutes at room temperature. […] The fluorescence of the cell population was measured with a Beckton Dickinson FACScan flow cytometer. […] The percentage value of the mean fluorescence intensity was calculated for the treated MDR and for the parental cell lines as compared with the values obtained with the untreated cells. The activity ratio (R) was calculated on the basis of the measured fluorescence values by the following equation: […]
Background: In flow cytometry, cells or beads pass a laser one at a time.

Data set [2] relates to MRC-5 human fibroblast cell lines. Kind of data set: Cytotoxicity on MRC-5 human fibroblast cell lines (Alamar Blue/resazurine, 24 h). Format: cell-based. The conditions noted are these: MRC-5 cells, 24 hours incubation, 1% DMSO. The protocol: The toxic effect of the compounds was measured on MRC-5 human fibroblast cell lines in accordance with the method that has been described in the article published by Molnár et al. [L. Molnár, G. M. Keserü, Á. Papp, Z. Lörincz, G. Ambrus és F. Darvas.: A neural network based classification scheme for cytotoxicity predictions: Validation on 30,000 compounds, Bioorg. Med. Chem. Lett. 16(4), 1037-9 (2006)]. The cells were incubated for a cell cycle (24 hours) with solutions of various concentrations prepared from the compounds, in the presence of 1% of DMSO. 3 parallel measurements were carried out with 6 different concentrations. The ratio of the viable cells was determined by reducing the Alamaar Blue (resazurine) reagent that was followed fluorimetrically. The measured materials were not toxic on the given cell line in a concentration of 128 μmol after incubation for one day.
In the following Table 1 the cytotoxicity of some compounds according to the invention is given.
Background: Resazurin is reduced to fluorescent resorufin, in cell work by metabolically active cells.

The source of these data is patent US8183292B2, “Chiral cyclic β-amino acids and their derivatives, pharmaceutical compositions containing them and the use of such compounds” (BioBlocks Magyarorszag Gyogyszerkemiai es Fejleszto Kft., priority 2006, dated 2012).

The term melting point denotes the temperature of the solid-liquid transition. `CC1(C)[C@H]2C[C@@H]3C(=O)N[C@@H]3[C@@H]1C2` [Compound 10, (1R,2R,5S,7R)-8,8-Dimethyl-3-Azatricyclo[5.1.1.0^2,5]Nonan-4-One] came in with a melting point of 68 to 72 °C.

The compound `CC(C)(C)OC(=O)N1C(=O)[C@H]2C[C@H]3C[C@@H]([C@H]21)C3(C)C` [Compound 11, (1R ,2R,5S,7R)-N-tert-Butoxycarbonyl-8,8-Dimethyl-3-Azatricyclo[5.1.1.0^2,5]-Nonan-4-One] yielded a melting point of 64 to 66 °C.

Turning to `CNC(=O)[C@H]1[C@@H](NC(=O)OC(C)(C)C)C[C@H]2C[C@H]1C2(C)C` [Compound 12, tert-Butyl (1R,2R,3S,5R)-(2-Methylaminocarbonyl-6,6-Dimethylbicyclo[3.1.1]-Hept-3-yl)Carbamate], the melting point lay within 104 to 105 °C.

Turning to `CC1(C)[C@H]2C[C@H](C(=O)O)[C@H](N)[C@@H]1C2` [Compound 13, (1R,2R,3S,5R)-2-Amino-6,6-Dimethylbicyclo[3.1.1]Heptan-3-Carboxylic Acid], the melting point stood at 270 °C.

For `CCOC(=O)[C@H](Cc1ccccc1)NC(=O)[C@H]1C[C@H]2C[C@@H]([C@H]1NC(=O)OC(C)(C)C)C2(C)C` [Compound 17], the “Vrel = effect related to Verapamil” value in data set [1] (Table 3, 4 μg/ml) came to 1.58; in data set [1] (Table 3, 40 μg/ml), 6.45. The “R = ratio of fluorescence and activity” value in data set [1] (Table 3, 4 μg/ml) is on record as 23.1; in data set [1] (Table 3, 40 μg/ml) it was 94.24.

As for `COC(=O)N(C1c2ccccc2-c2ccccc21)[C@H]1[C@@H](C(=O)O)C[C@H]2C[C@@H]1C2(C)C` [Compound 18, (1R,2R,3S,5R)-2-(9H-Fluoren-9-yl-Methoxycarbonylamino)-6,6-Dimethylbicyclo[3.1.1]Heptan-3-Carboxylic Acid], the melting point is 160 to 162 °C.

On to `CC1(C)[C@H]2C[C@@H](C(=O)O)[C@H](N)[C@@H]1C2` [Compound 29, (1R,2R,3R,5R)-2-Amino-6,6-Dimethylbicyclo[3.1.1]Heptan-3-Carboxylic Acid], for which the melting point fell in the range of 250 to 252 °C.

Compound `COC(=O)N(C1c2ccccc2-c2ccccc21)[C@H]1[C@H](C(=O)O)C[C@H]2C[C@@H]1C2(C)C` [Compound 30, (1R,2R,3R,5R)-2-(9H-Fluoren-9-yl-Methoxycarbonylamino)-6,6-Dimethylbicyclo[3.1.1]Heptan-3-Carboxylic Acid] returned a melting point of 155 to 157 °C.

As to `CCOC(=O)[C@H](Cc1ccccc1)NC(=O)[C@@H]1C[C@@H]2C[C@H]([C@@H]1NC(=O)OC(C)(C)C)C2(C)C` [Compound 38], the “Vrel = effect related to Verapamil” value came to 0.79 in data set [1] (Table 2, 4 μg/ml) and 6.73 in data set [1] (Table 2, 40 μg/ml). Besides, the “R (activity ratio, fluorescence)” value in data set [1] (Table 2, 4 μg/ml) was found to be 2.33; in data set [1] (Table 2, 40 μg/ml) it was 19.92. The “Survival (%) [c = 128 μM]” value in data set [2] is given as 125.3%.

On to `CC1(C)[C@@H]2C[C@H](C(=O)O)[C@@H](NC(=O)OCC3c4ccccc4-c4ccccc43)[C@H]1C2` [Compound 41, (1S,2S,3S,5S)-2-(9H-Fluoren-9-yl-Methoxycarbonylamino)-6,6-Dimethylbicyclo[3.1.1]Heptan-3-Carboxylic Acid], for which, in data set [1] (Table 3, 4 μg/ml), the “Vrel = effect related to Verapamil” value turned out to be 0.07; the “R = ratio of fluorescence and activity” value is 0.86. In data set [1] (Table 3, 40 μg/ml), the “Vrel = effect related to Verapamil” value came to 0.11; the “R = ratio of fluorescence and activity” value was found to be 1.25.

Take `CCOC(=O)[C@H]1C[C@H]2C[C@@H]([C@H]1NC(=S)Nc1cccc(OC)c1)C2(C)C` [Compound 44, (1R,2R,3S,5R)-1-(3-Ethoxycarbonyl-6,6-Dimethylbicyclo[3.1.1]Heptan-2-yl)-3-(3-Methoxyphenyl)-Thiourea]: the melting point lay within 132 to 135 °C. In data set [1], the “Multidrug resistance reversing effect (in words)” value was “significant dose-dependent effect”. For the same compound, in data set [1] (Table 2, 4 μg/ml), the “Vrel = effect related to Verapamil” value was 0.41 and the “R (activity ratio, fluorescence)” value is 2.02. In data set [1] (Table 2, 40 μg/ml), the “Vrel = effect related to Verapamil” value stood at 4.47 and the “R (activity ratio, fluorescence)” value worked out at 22. The “Survival (%) [c = 128 μM]” value in data set [2] came out at 128.1%.

The compound `CCOC(=O)[C@H]1C[C@H]2C[C@@H]([C@H]1NC(=O)Nc1ccc(Cl)cc1)C2(C)C` [Compound 45, (1R,2R,3S,5R)-1-(3-Ethoxycarbonyl-6,6-Dimethylbicyclo[3.1.1]Heptan-2-yl) -3-(4-Chlorophenyl)-Urea] showed a melting point of 170 to 171 °C. Also, in data set [1] (Table 2, 4 μg/ml), the “Vrel = effect related to Verapamil” value is reported as 1.52 and the “R (activity ratio, fluorescence)” value worked out at 7.46. Besides, in data set [1] (Table 2, 40 μg/ml), the “Vrel = effect related to Verapamil” value stood at 2.21 and the “R (activity ratio, fluorescence)” value amounted to 10.89. The “Survival (%) [c = 128 μM]” value in data set [2] was 176.7%.

For `CCOC(=O)[C@H]1C[C@H]2C[C@@H]([C@H]1NC(=S)NCCc1ccc(OC)c(OC)c1)C2(C)C` [Compound 46, (1R,2R,3S,5R)-1-(3-Ethoxycarbonyl-6,6-Dimethylbicyclo[3.1.1]Heptan-2-yl) -3-(3,4-Dimethoxyphenylethyl)-Thiourea], the melting point lay in the range of 125 to 126 °C. In addition, the “Multidrug resistance reversing effect (in words)” value in data set [1] was “significant dose-dependent effect”. For the same compound, in data set [1] (Table 2, 4 μg/ml), the “Vrel = effect related to Verapamil” value amounted to 0.82 and the “R (activity ratio, fluorescence)” value is listed as 4.02. In addition, in data set [1] (Table 2, 40 μg/ml), the “Vrel = effect related to Verapamil” value is reported as 4.46 and the “R (activity ratio, fluorescence)” value was 21.92. Further, the “Survival (%) [c = 128 μM]” value in data set [2] worked out at 182.2%.

`CCOC(=O)[C@H]1C[C@H]2C[C@@H]([C@H]1N(Cc1ccccc1)C(=O)Nc1ccc(Cl)cc1)C2(C)C` [Compound 48, (1R,2R,3S,5R)-1-Benzyl-1-(3-Ethoxycarbonyl-6,6-Dimethylbicyclo[3.1.1]Heptan-2-yl)-3-(4-Chlorophenyl)-Urea]: the melting point fell in the range of 202 to 205 °C.

With `CCOC(=O)[C@@H]1C[C@H]2C[C@@H]([C@H]1NC(=S)NCCc1ccc(OC)c(OC)c1)C2(C)C` [Compound 51, (1R,2R,3R,5R)-1-(3-Ethoxycarbonyl-6,6-Dimethylbicyclo[3.1.1]Heptan-2-yl)-3-(3,4-Dimethoxyphenyl-Ethyl)-Thiourea], the “Multidrug resistance reversing effect (in words)” value in data set [1] is listed as “significant dose-dependent effect”. In data set [1] (Table 2, 4 μg/ml), the “Vrel = effect related to Verapamil” value turned out to be 2.70 and the “R (activity ratio, fluorescence)” value amounted to 13.29. In addition, in data set [1] (Table 2, 40 μg/ml), the “Vrel = effect related to Verapamil” value is 9.96 and the “R (activity ratio, fluorescence)” value is given as 49.02.

Regarding `CCOC(=O)[C@@H]1C[C@@H]2C[C@H]([C@@H]1NC(=S)Nc1cccc(OC)c1)C2(C)C` [Compound 54, (1S,2S,3R,5S)-1-(3-Ethoxycarbonyl-6,6-Dimethylbicyclo[3.1.1]Heptan-2-yl) -3-(3-Methoxyphenyl)-Thiourea], in data set [1] (Table 2, 4 μg/ml), the “Vrel = effect related to Verapamil” value was determined as 0.48 and the “R (activity ratio, fluorescence)” value is 2.37. In data set [1] (Table 2, 40 μg/ml), the “Vrel = effect related to Verapamil” value amounted to 5.36 and the “R (activity ratio, fluorescence)” value worked out at 26.35.

Regarding `CCOC(=O)[C@H]1C[C@@H]2C[C@H]([C@@H]1NC(=S)Nc1cccc(OC)c1)C2(C)C` [Compound 55, (1S,2S,3S,5S)-1-(3-Ethoxycarbonyl-6,6-Dimethylbicyclo[3.1.1]Heptan-2-yl)-3-(3-Methoxyphenyl)-Thiourea], in data set [1] (Table 2, 4 μg/ml), the “Vrel = effect related to Verapamil” value is on record as 0.62 and the “R (activity ratio, fluorescence)” value came out at 3.07. Also, in data set [1] (Table 2, 40 μg/ml), the “Vrel = effect related to Verapamil” value stood at 2.44 and the “R (activity ratio, fluorescence)” value came out at 11.99. Besides, the “Survival (%) [c = 128 μM]” value in data set [2] is reported as 214.1%.

For `CCOC(=O)[C@H]1C[C@@H]2C[C@H]([C@@H]1NC(=O)Nc1ccc(Cl)cc1)C2(C)C` [Compound 56, (1S,2S,3S,5S)-1-(3-Ethoxycarbonyl-6,6-Dimethylbicyclo[3.1.1]Heptan-2-yl)-3-(4-Chlorophenyl)-Urea], the “Multidrug resistance reversing effect (in words)” value in data set [1] is “significant dose-dependent effect”. The “Vrel = effect related to Verapamil” value in data set [1] (Table 3, 4 μg/ml) was determined as 0.14; in data set [1] (Table 3, 40 μg/ml) it was 3.43. The “R = ratio of fluorescence and activity” value in data set [1] (Table 3, 4 μg/ml) is reported as 1.57; in data set [1] (Table 3, 40 μg/ml), 39.39. Further, in data set [2], the “Survival (%) [c = 128 μM]” value is listed as 116.8%.
